IC50 data for 32 compounds are collected here from patent US12479820B2, “Pyridin-3-yl derivatives” (Idorsia Pharmaceuticals Ltd, priority 2019, dated 2025).

The target of the assay is T1, human LPA1 receptor (Homo sapiens, UniProt Q92633).
T1 construct: TEV protease site; Gal4-VP16 transcription factor; host or cells: Tango EDG2-bla U2OS cells
T1 sequence (Q92633 whole entry, the tested form may be a part): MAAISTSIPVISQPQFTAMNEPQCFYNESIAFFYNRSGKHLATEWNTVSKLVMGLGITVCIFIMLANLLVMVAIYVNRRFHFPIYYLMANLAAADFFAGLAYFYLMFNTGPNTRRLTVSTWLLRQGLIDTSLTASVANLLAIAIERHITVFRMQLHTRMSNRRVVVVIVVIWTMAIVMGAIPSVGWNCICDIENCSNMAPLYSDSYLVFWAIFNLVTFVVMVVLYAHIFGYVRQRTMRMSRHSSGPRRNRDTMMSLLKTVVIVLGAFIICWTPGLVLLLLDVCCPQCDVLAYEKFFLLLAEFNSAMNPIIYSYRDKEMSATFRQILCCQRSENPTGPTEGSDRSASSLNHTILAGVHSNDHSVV
Kind of assay: Beta-arrestin recruitment assay to determine IC50 values for human LPAR1. To be noted: Tango EDG2-bla U2OS cells, antagonist assay, LPA 18:1 500 nM final. Type of assay: cell-based. The gist of the method:
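Tango EDG2-bla U2OS cells were preincubated 30 min at 37 °C with compound. They were then stimulated with 500 nM (final) LPA 18:1 for 16 h. β-Lactamase reporter read by LiveBLAzer FRET substrate (2 h) as the 460/530 nm ratio; IC50 from 4-parameter logistic fit.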
In general terms: Arrestin recruitment assays detect the binding of arrestin to an activated receptor.
For the compound `COc1cc(Cl)ncc1NC(=O)C1(c2ccccc2C(C)C)CN(c2ncc(C#N)cn2)C1` [Example 24-8, N-(6-chloro-4-methoxypyridin-3-yl)-1-(5-cyanopyrimidin-2-yl)-3-(2-isopropylphenyl)azetidine-3-carboxamide], the IC50 (as a rule, the concentration that inhibits the measured activity by half) amounted to 0.001 µM. In the case of `COc1cc(Cl)ncc1NC(=O)C1(c2ccccc2C(C)C)CN(c2cnc(C(=O)O)cn2)C1` [Example 24-20, 5-(3-((6-chloro-4-methoxypyridin-3-yl)carbamoyl)-3-(2-isopropylphenyl)azetidin-1-yl)pyrazine-2-carboxylic acid] it was 0.145 µM; in that of `COc1cc(Cl)ncc1NC(=O)C1(c2ccccc2C(C)C)CN(CCO)C1` [Example 18-3, N-(6-chloro-4-methoxypyridin-3-yl)-1-(2-hydroxyethyl)-3-(2-isopropylphenyl)azetidine-3-carboxamide], 0.037 µM.

Consider `COCCOC(=O)N1CC(C(=O)Nc2cnc(Cl)cc2OC)(c2ccccc2C(C)C)C1` [Example 23-2, 2-Methoxyethyl 3-((6-chloro-4-methoxypyridin-3-yl)carbamoyl)-3-(2-isopropylphenyl)azetidine-1-carboxylate], for which the half-maximal inhibitory concentration (IC50) is 0.069 µM.

Turning to `COc1cc(Cl)ncc1NC(=O)C1(c2ccccc2C(C)C)CN(C2COC2)C1` [Example 18-9, N-(6-chloro-4-methoxypyridin-3-yl)-3-(2-isopropylphenyl)-1-(oxetan-3-yl)azetidine-3-carboxamide], the IC50 amounted to 0.022 µM. Turning to `COc1cc(Cl)ncc1NC(=O)C1(c2ccccc2C(C)C)CN(C(=O)Cn2nccn2)C1` [Example 19-7, 1-(2-(2H-1,2,3-triazol-2-yl)acetyl)-N-(6-chloro-4-methoxypyridin-3-yl)-3-(2-isopropylphenyl)azetidine-3-carboxamide], the 50% inhibitory concentration (IC50) came to 0.015 µM. In the case of `COc1cc(Cl)ncc1NC(=O)C1(c2ccccc2C(C)C)CN(C(=O)Cc2cc(O)n[nH]2)C1` [Example 19-13, N-(6-chloro-4-methoxypyridin-3-yl)-1-(2-(3-hydroxy-1H-pyrazol-5-yl)acetyl)-3-(2-isopropylphenyl)azetidine-3-carboxamide] it was 0.112 µM; in that of `COc1cc(Cl)ncc1NC(=O)C1(c2ncccc2C(C)C)CN(S(N)(=O)=O)C1` [Example 21-16, N-(6-chloro-4-methoxypyridin-3-yl)-3-(3-isopropylpyridin-2-yl)-1-sulfamoylazetidine-3-carboxamide], 0.012 µM; in that of `CNS(=O)(=O)N1CC(C(=O)Nc2cnc(Cl)cc2OC)(c2ccccc2C(C)C)C1` [Example 21-12, N-(6-chloro-4-methoxypyridin-3-yl)-3-(2-isopropylphenyl)-1-(N-methylsulfamoyl)azetidine-3-carboxamide], 0.019 µM.

As to `COc1cc(Cl)ncc1NC(=O)C1(c2ccccc2C(C)C)CN(C[C@@H]2COC(C)(C)O2)C1` [Example 18-11, (R)-N-(6-chloro-4-methoxypyridin-3-yl)-1-((2,2-dimethyl-1,3-dioxolan-4-yl)methyl)-3-(2-isopropylphenyl)azetidine-3-carboxamide], the IC50 is 0.136 µM. In the case of `COC(=O)C(C)(C)CC(=O)N1CC(C(=O)Nc2cnc(Cl)cc2OC)(c2ccccc2C(C)C)C1` [Example 19-17, methyl 4-(3-((6-chloro-4-methoxypyridin-3-yl)carbamoyl)-3-(2-isopropylphenyl)azetidin-1-yl)-2,2-dimethyl-4-oxobutanoate] it was 0.043 µM; in that of `COc1cc(Cl)ncc1NC(=O)C1(c2ccccc2C(C)C)CN(CC(C)C)C1` [Example 18-2, N-(6-chloro-4-methoxypyridin-3-yl)-1-isobutyl-3-(2-isopropylphenyl)azetidine-3-carboxamide], 0.035 µM; in that of `COC(=O)N1CC(C(=O)Nc2cnc(Cl)cc2OC)(c2ccccc2C(C)C)C1` [Example 23-1, Methyl 3-((6-chloro-4-methoxypyridin-3-yl)carbamoyl)-3-(2-isopropylphenyl)azetidine-1-carboxylate], 0.006 µM. For the compound `CC(C)c1ccccc1C1(C(=O)Nc2cnc(Cl)cc2OC2CC2)CN(S(N)(=O)=O)C1` [Example 21-5, N-(6-chloro-4-cyclopropoxypyridin-3-yl)-3-(2-isopropylphenyl)-1-sulfamoylazetidine-3-carboxamide], the IC50 was 0.006 µM. In the case of `COc1cc(Cl)ncc1NC(=O)C1(c2ccccc2C(C)C)CN(CCc2nnn[nH]2)C1` [Example 18-4, 1-(2-(1H-tetrazol-5-yl)ethyl)-N-(6-chloro-4-methoxypyridin-3-yl)-3-(2-isopropylphenyl)azetidine-3-carboxamide] it was 0.143 µM. As for `CCOC(=O)c1coc(N2CC(C(=O)Nc3cnc(Cl)cc3OC)(c3ccccc3C(C)C)C2)n1` [Example 24-25, ethyl 2-(3-((6-chloro-4-methoxypyridin-3-yl)carbamoyl)-3-(2-isopropylphenyl)azetidin-1-yl)oxazole-4-carboxylate], the figure is 0.015 µM; as for `COc1cc(Cl)ncc1NC(=O)C1(c2ccccc2C(C)C)CN(c2ncncc2C)C1` [Example 24-13, N-(6-chloro-4-methoxypyridin-3-yl)-3-(2-isopropylphenyl)-1-(5-methylpyrimidin-4-yl)azetidine-3-carboxamide], 0.005 µM. In the case of `COc1cc(Cl)ncc1NC(=O)C1(c2ccccc2C(C)C)CCN(c2ncncc2F)CC1` [Example 24-17, N-(6-chloro-4-methoxypyridin-3-yl)-1-(5-fluoropyrimidin-4-yl)-4-(2-isopropylphenyl)piperidine-4-carboxamide] it was 0.003 µM; in that of `COc1cc(Cl)ncc1NC(=O)C1(c2ccccc2C(C)C)CN(S(=O)(=O)NCCO)C1` [Example 21-21, N-(6-chloro-4-methoxypyridin-3-yl)-1-(N-(2-hydroxyethyl)sulfamoyl)-3-(2-isopropylphenyl)azetidine-3-carboxamide], 0.056 µM; in that of `CC(C)Oc1cc(Cl)ncc1NC(=O)C1(c2ccccc2C(C)C)CN(CCC(C)(C)C(=O)O)C1` [Example 18-20, 4-(3-((6-chloro-4-isopropoxypyridin-3-yl)carbamoyl)-3-(2-isopropylphenyl)azetidin-1-yl)-2,2-dimethylbutanoic acid], 0.016 µM. Consider `C=C(C)C(=O)OCCNC(=O)N1CC(C(=O)Nc2cnc(Cl)cc2OC)(c2ccccc2C(C)C)C1` [Example 22-8, 2-(3-((6-chloro-4-methoxypyridin-3-yl)carbamoyl)-3-(2-isopropylphenyl)azetidine-1-carboxamido)ethyl methacrylate], for which the half-inhibitory concentration (IC50) was 0.012 µM. As to `COc1cc(Cl)ncc1NC(=O)C1(c2c(F)cccc2C(C)C)CNC1` [Example 13, N-(6-chloro-4-methoxypyridin-3-yl)-3-(2-fluoro-6-isopropylphenyl)azetidine-3-carboxamide], the IC50 was determined as 0.003 µM. `COc1cc(Cl)ncc1NC(=O)C1(c2ccccc2C(C)C)CN(c2c(O)c(=O)c2=O)C1` [Example 27, N-(6-chloro-4-methoxypyridin-3-yl)-1-(2-hydroxy-3,4-dioxocyclobut-1-en-1-yl)-3-(2-isopropylphenyl)azetidine-3-carboxamide]: the IC50 is 0.055 µM. Consider `COc1cc(F)ncc1NC(=O)C1(c2ccccc2C(C)C)CN(C(=O)CC(C)(C)C(=O)O)C1` [Example 19-23, 4-(3-((6-fluoro-4-methoxypyridin-3-yl)carbamoyl)-3-(2-isopropylphenyl)azetidin-1-yl)-2,2-dimethyl-4-oxobutanoic acid], for which the IC50 was found to be 0.1 µM. Take `COCCOc1cc(Cl)ncc1NC(=O)C1(c2ccccc2C(C)C)CNC1` [Example 8, N-(6-chloro-4-(2-methoxyethoxy)pyridin-3-yl)-3-(2-isopropylphenyl)azetidine-3-carboxamide]: the IC50 was 0.252 µM. In the case of `COc1cc(Br)ncc1NC(=O)C1(c2ccccc2C(C)C)CN(CCC(C)(C)C(=O)O)C1` [Example 18-23, 4-(3-((6-bromo-4-methoxypyridin-3-yl)carbamoyl)-3-(2-isopropylphenyl)azetidin-1-yl)-2,2-dimethylbutanoic acid] it was 0.056 µM; in that of `COc1cc(Cl)ncc1NC(=O)C1(c2ccccc2C(C)C)CN(C(=O)CNS(N)(=O)=O)C1` [Example 19-14, N-(6-chloro-4-methoxypyridin-3-yl)-3-(2-isopropylphenyl)-1-(sulfamoylglycyl)azetidine-3-carboxamide], 0.067 µM; in that of `CC(C)Oc1cc(Cl)ncc1NC(=O)C1(c2ccccc2C(C)C)CNC1` [Example 6, N-(6-chloro-4-isopropoxypyridin-3-yl)-3-(2-isopropylphenyl)azetidine-3-carboxamide], 0.003 µM. As for `COc1cc(Cl)ncc1NC(=O)C1(c2ccccc2C(C)C)CN(C[C@@H](O)CO)C1` [Example 18-12, (R)-N-(6-chloro-4-methoxypyridin-3-yl)-1-(2,3-dihydroxypropyl)-3-(2-isopropylphenyl)azetidine-3-carboxamide], the figure is 0.028 µM; as for `COc1cc(Cl)ncc1NC(=O)C1(c2cc(F)ccc2C(C)C)CN(S(N)(=O)=O)C1` [Example 21-15, N-(6-chloro-4-methoxypyridin-3-yl)-3-(5-fluoro-2-isopropylphenyl)-1-sulfamoylazetidine-3-carboxamide], 0.005 µM; as for `COc1cc(Cl)ncc1NC(=O)C1(c2ccccc2C(C)C)CN(C(=O)CC(C)(C)C(=O)O)C1` [Example 19-18, 4-(3-((6-chloro-4-methoxypyridin-3-yl)carbamoyl)-3-(2-isopropylphenyl)azetidin-1-yl)-2,2-dimethyl-4-oxobutanoic acid], 0.088 µM.

With `CCOc1cc(Cl)ncc1NC(=O)C1(c2ccccc2C(C)C)CNC1` [Example 5, N-(6-chloro-4-ethoxypyridin-3-yl)-3-(2-isopropylphenyl)azetidine-3-carboxamide], the IC50 is 0.003 µM.
